Among the data in publication PMC12250965, “Design and Synthesis of Sulfonium and Selenonium Derivatives Bearing 3′,5′-O-Benzylidene Acetal Side Chain Structure as Potent α-Glucosidase Inhibitors” (Molecules, 2025) are IC50 values, retold here.

Read-outs that look alike come from different tables or passages of the source.

In one test the target is rat intestinal maltase. As to the kind of experiment: In vitro α-glucosidase inhibition assay, rat intestinal maltase. The note with it: rat small intestinal brush border membrane vesicles; maltose substrate; mean ± SD (n = 3); read-out: IC50 against maltase. It counts as biochemical. The protocol:
(§1) The testing method previously described was modified and used. Thus, rat small intestinal brush border membrane vesicles were first prepared, and its suspension in 0.1 M maleate buffer (pH = 6.0) was used as small intestinal α-glucosidases of maltase and sucrase. A test compound was dissolved in dimethylsulfoxide (DMSO), and the resulting solution was diluted with 0.1 M maleate buffer to prepare the test compound solution (concentration of DMSO: 10%). The substrate solution in maleate buffer ([…], 50 μL), a test compound solution (25 μL), and the enzyme solution (25 μL) were mixed and incubated at 37 °C for 30 min. After incubation, the solution was immediately heated by boiling water for 2 min to stop the reaction, and the solution was mixed with water (150 μL). Glucose concentration was determined by the glucose-oxidase method. […] The IC50 value was determined graphically by a plot of percent inhibition versus log of the test compound.

The next test has as its target T1, rat intestinal sucrase (Rattus norvegicus, UniProt P23739).
T1 construct: rat small intestinal brush border membrane vesicles were first prepared; from tissue; host or cells: rat small intestine, brush border membrane vesicles
Nature of the test: In vitro α-glucosidase inhibition assay, rat intestinal sucrase. It counts as biochemical. The method, then: as §1

The mark [1] stands for this setting: rat small intestinal brush border membrane vesicles, sucrose substrate, mean ± SD (n = 3), read-out: IC50 against sucrase.

T1 sequence (P23739 whole entry): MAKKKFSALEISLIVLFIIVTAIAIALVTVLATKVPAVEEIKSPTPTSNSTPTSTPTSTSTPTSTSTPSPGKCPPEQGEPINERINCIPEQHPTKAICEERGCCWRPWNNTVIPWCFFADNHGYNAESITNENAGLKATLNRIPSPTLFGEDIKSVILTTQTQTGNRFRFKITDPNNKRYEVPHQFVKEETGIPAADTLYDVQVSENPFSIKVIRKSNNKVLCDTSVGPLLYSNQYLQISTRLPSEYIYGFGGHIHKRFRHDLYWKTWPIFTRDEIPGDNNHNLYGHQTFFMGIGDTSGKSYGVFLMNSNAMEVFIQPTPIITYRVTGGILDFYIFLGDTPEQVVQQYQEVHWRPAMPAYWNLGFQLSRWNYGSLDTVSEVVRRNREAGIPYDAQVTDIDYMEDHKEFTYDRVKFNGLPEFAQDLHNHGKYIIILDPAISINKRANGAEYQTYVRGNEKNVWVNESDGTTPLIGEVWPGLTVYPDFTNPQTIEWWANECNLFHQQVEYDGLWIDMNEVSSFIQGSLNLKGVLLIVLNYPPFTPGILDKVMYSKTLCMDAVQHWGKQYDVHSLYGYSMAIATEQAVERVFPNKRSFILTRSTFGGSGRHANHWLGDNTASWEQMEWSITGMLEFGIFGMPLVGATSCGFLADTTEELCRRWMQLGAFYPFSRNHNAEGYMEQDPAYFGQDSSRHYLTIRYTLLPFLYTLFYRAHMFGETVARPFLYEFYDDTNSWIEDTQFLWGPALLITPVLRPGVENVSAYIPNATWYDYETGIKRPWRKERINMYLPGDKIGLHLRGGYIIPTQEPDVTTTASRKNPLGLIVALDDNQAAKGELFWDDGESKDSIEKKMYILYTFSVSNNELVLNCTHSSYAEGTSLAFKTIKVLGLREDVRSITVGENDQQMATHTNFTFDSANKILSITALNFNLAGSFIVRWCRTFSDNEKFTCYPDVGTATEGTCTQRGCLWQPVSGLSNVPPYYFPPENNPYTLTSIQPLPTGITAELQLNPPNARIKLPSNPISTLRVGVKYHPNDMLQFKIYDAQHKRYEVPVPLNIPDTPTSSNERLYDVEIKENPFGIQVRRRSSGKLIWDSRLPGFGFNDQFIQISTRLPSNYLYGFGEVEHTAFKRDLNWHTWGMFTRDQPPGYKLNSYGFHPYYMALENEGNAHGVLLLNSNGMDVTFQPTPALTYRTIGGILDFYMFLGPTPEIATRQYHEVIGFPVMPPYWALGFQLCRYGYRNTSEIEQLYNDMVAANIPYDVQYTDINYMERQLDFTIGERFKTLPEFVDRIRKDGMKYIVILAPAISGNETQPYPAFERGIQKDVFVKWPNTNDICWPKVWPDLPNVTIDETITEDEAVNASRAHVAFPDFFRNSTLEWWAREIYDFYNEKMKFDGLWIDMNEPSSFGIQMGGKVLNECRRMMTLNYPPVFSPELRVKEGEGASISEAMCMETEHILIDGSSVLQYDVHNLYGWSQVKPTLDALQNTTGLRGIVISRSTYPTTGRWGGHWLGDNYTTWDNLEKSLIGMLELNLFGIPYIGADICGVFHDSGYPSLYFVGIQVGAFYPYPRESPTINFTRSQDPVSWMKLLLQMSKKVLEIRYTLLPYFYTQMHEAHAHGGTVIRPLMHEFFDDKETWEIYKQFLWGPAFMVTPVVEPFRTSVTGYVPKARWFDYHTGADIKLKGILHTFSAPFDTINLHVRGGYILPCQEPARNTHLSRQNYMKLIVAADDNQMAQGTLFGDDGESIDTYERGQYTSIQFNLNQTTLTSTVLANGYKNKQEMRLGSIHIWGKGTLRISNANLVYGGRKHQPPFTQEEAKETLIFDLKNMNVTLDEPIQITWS

Take `OCC1C(O)C(O)C[S+]1CC(O)C1OC(c2ccccc2Br)OCC1O` [19k, 1,4-Dideoxy-1,4-[(R)-(5-deoxy-1,3-O-(o-bromobenzylidene)-D-arabinitol-5-yl)episulfoniumylidene]-D-arabinitol chloride]: the figures for the IC50 at rat intestinal maltase and on rat intestinal sucrase (setting [1]) were 1900 ± 80 nM and 1100 ± 20 nM, respectively. Consider `OCC1C(O)C(O)C[S+]1CC(O)C1OC(c2cccc(F)c2Cl)OCC1O` [19d, 1,4-Dideoxy-1,4-[(R)-(5-deoxy-1,3-O-(2-chloro-3-fluorobenzylidene)-D-arabinitol-5-yl)episulfoniumylidene]-D-arabinitol chloride], for which the IC50 (in general, the point on the concentration scale where inhibition reaches its midpoint) stood at 1000 ± 50 nM on rat intestinal maltase and 700 ± 130 nM on rat intestinal sucrase (setting [1]).

In the case of `OC[C@@H]1[C@@H](O)[C@H](O)C[Se@+]1C[C@@H](O)[C@H]1OC(c2cc(F)cc(Cl)c2)OC[C@H]1O` (stereo partly drawn) [20h, (1S,2R,3S,4S)-1-((2S)-2-((4S,5R)-2-(3-Chloro-5-fluorophenyl)-5-hydroxy-1,3-dioxan-4-yl)-2-hydroxyethyl)-3,4-dihydroxy-2-(hydroxymethyl)tetrahydro-1H-selenophen-1-ium chloride], the IC50 stood at 3670 ± 890 nM on rat intestinal maltase and 1960 ± 250 nM at rat intestinal sucrase.

`OCC1C(O)C(O)C[S+]1CC(O)C1OC(c2cc(Cl)ccc2Cl)OCC1O` [19c, 1,4-Dideoxy-1,4-[(R)-(5-deoxy-1,3-O-(2,5-dichlorobenzylidene)-D-arabinitol-5-yl)episulfoniumylidene]-D-arabinitol chloride]: the IC50 at rat intestinal maltase is 550 ± 50 nM; on rat intestinal sucrase (setting [1]), 800 ± 120 nM. Regarding `OCC1C(O)C(O)C[S+]1CC(O)C1OC(c2cccc3ccccc23)OCC1O` [19q, 1,4-Dideoxy-1,4-[(R)-(5-deoxy-1,3-O-(1-naphthalene)-D-arabinitol-5-yl)episulfoniumylidene]-D-arabinitol chloride], the IC50 on rat intestinal maltase was 4600 ± 370 nM; at rat intestinal sucrase (setting [1]), 5800 ± 410 nM. The corresponding values for `OCC1C(O)C(O)C[S+]1CC(O)C1OC(c2ccc(Cl)cc2Cl)OCC1O` [19b, 1,4-Dideoxy-1,4-[(R)-(5-deoxy-1,3-O-(2,4-dichlorobenzylidene)-D-arabinitol-5-yl)episulfoniumylidene]-D-arabinitol chloride] are 2000 ± 80 nM and 1200 ± 230 nM. On to `N#Cc1ccccc1C1OCC(O)C(C(O)C[S+]2CC(O)C(O)C2CO)O1` [19p, 1,4-Dideoxy-1,4-[(R)-(5-deoxy-1,3-O-(o-cyanobenzyliden)-D-arabinitol-5-yl)episulfoniumylidene]-D-arabinitol chloride], for which the IC50 at rat intestinal maltase is 880 ± 40 nM; at rat intestinal sucrase (setting [1]), 900 ± 50 nM. As for `OCC1C(O)C(O)C[S+]1CC(O)C1OC(c2cccc(Br)c2)OCC1O` [19l, 1,4-Dideoxy-1,4-[(R)-(5-deoxy-1,3-O-(m-bromobenzylidene)-D-arabinitol-5-yl)episulfoniumylidene]-D-arabinitol chloride], the IC50 came out at 9700 ± 740 nM on rat intestinal maltase and 7900 ± 1600 nM on rat intestinal sucrase (setting [1]). In the case of `OC[C@@H]1[C@@H](O)[C@H](O)C[Se@@+]1C[C@@H](O)[C@H]1OC(c2cccc3ccccc23)OC[C@H]1O` (stereo partly drawn) [20q, (1S,2R,3S,4S)-3,4-dihydroxy-1-((2S)-2-hydroxy-2-((4S,5R)-5-hydroxy-2-(naphthalen-1-yl)-1,3-dioxan-4-yl)ethyl)-2-(hydroxymethyl)tetrahydro-1H-selenophen-1-ium chloride], the figures for the IC50 on rat intestinal maltase and against rat intestinal sucrase were 920 ± 230 nM and 680 ± 140 nM, respectively. For `OC[C@@H]1[C@@H](O)[C@H](O)C[Se@+]1C[C@@H](O)[C@H]1OC(c2ccccc2-c2ccccc2)OC[C@H]1O` (stereo partly drawn) [20r, (1S,2R,3S,4S)-1-((2S)-2-((4S,5R)-2-([1,1′-biphenyl]-2-yl)-5-hydroxy-1,3-dioxan-4-yl)-2-hydroxyethyl)-3,4-dihydroxy-2-(hydroxymethyl)tetrahydro-1H-selenophen-1-ium chloride], the IC50 was 2000 ± 520 nM on rat intestinal maltase and 720 ± 170 nM against rat intestinal sucrase. Turning to `O=[N+]([O-])c1ccc(F)cc1C1OCC(O)C(C(O)C[S+]2CC(O)C(O)C2CO)O1` [19j, 1,4-Dideoxy-1,4-[(R)-(5-deoxy-1,3-O-(5-fluoro-2-nitrobenzylidene)-D-arabinitol-5-yl)episulfoniumylidene]-D-arabinitol chloride], the IC50 amounted to 750 ± 80 nM on rat intestinal maltase and 1500 ± 210 nM at rat intestinal sucrase (setting [1]). With `OCC1C(O)C(O)C[S+]1CC(O)C1OC(c2cccc(Cl)c2Cl)OCC1O` [19a, 1,4-Dideoxy-1,4-[(R)-(5-deoxy-1,3-O-(2,3-dichlorobenzylidene)-D-arabinitol-5-yl)episulfoniumylidene]-D-arabinitol chloride], the IC50 came out at 500 ± 80 nM at rat intestinal maltase and 1600 ± 430 nM at rat intestinal sucrase (setting [1]).

For the compound `OCC1C(O)C(O)C[S+]1CC(O)C1OC(c2ccc(Cl)c(Cl)c2)OCC1O` [19f, 1,4-Dideoxy-1,4-[(R)-(5-deoxy-1,3-O-(3,4-dichlorobenzylidene)-D-arabinitol-5-yl)episulfoniumylidene]-D-arabinitol chloride], the IC50 was 5000 ± 390 nM at rat intestinal maltase and 4600 ± 90 nM at rat intestinal sucrase (setting [1]). `OC[C@@H]1[C@@H](O)[C@H](O)C[Se@+]1C[C@@H](O)[C@H]1OC(c2ccccc2Br)OC[C@H]1O` (stereo partly drawn) [20k, (1S,2R,3S,4S)-1-((2S)-2-((4S,5R)-2-(2-Bromophenyl)-5-hydroxy-1,3-dioxan-4-yl)-2-hydroxyethyl)-3,4-dihydroxy-2-(hydroxymethyl)tetrahydro-1H-selenophen-1-ium chloride]: the IC50 was determined as 530 ± 220 nM on rat intestinal maltase and 120 ± 50 nM against rat intestinal sucrase.

`OC[C@@H]1[C@@H](O)[C@H](O)C[Se@+]1C[C@@H](O)[C@H]1OC(c2ccc(Cl)c(Cl)c2)OC[C@H]1O` (stereo partly drawn) [20f, (1S,2R,3S,4S)-1-((2S)-2-((4S,5R)-2-(3,4-Dichlorophenyl)-5-hydroxy-1,3-dioxan-4-yl)-2-hydroxyethyl)-3,4-dihydroxy-2-(hydroxymethyl)tetrahydro-1H-selenophen-1-ium chloride]: the figures for the IC50 at rat intestinal maltase and against rat intestinal sucrase were 470 ± 110 nM and 330 ± 40 nM, respectively.

For the compound `OCC1C(O)C(O)C[S+]1CC(O)C1OC(c2ccc(Br)cc2)OCC1O` [19m, 1,4-Dideoxy-1,4-[(R)-(5-deoxy-1,3-O-(p-bromobenzylidene)-D-arabinitol-5-yl)episulfoniumylidene]-D-arabinitol chloride], the IC50 on rat intestinal maltase amounted to 4100 ± 80 nM; on rat intestinal sucrase (setting [1]) it was 3500 ± 60 nM.

Regarding `OC[C@@H]1[C@@H](O)[C@H](O)C[Se@+]1C[C@@H](O)[C@H]1OC(c2ccc(Br)cc2)OC[C@H]1O` (stereo partly drawn) [20m, (1S,2R,3S,4S)-1-((2S)-2-((4S,5R)-2-(4-Bromophenyl)-5-hydroxy-1,3-dioxan-4-yl)-2-hydroxyethyl)-3,4-dihydroxy-2-(hydroxymethyl)tetrahydro-1H-selenophen-1-ium chloride], the IC50 worked out at 70 ± 30 nM on rat intestinal maltase and 200 ± 50 nM at rat intestinal sucrase. For the compound `OCC1C(O)C(O)C[S+]1CC(O)C1OC(c2cc(Cl)cc(Cl)c2)OCC1O` [19g, 1,4-Dideoxy-1,4-[(R)-(5-deoxy-1,3-O-(3,5-dichlorobenzylidene)-D-arabinitol-5-yl)episulfoniumylidene]-D-arabinitol chloride], the IC50 is 4900 ± 250 nM on rat intestinal maltase and 5500 ± 620 nM at rat intestinal sucrase (setting [1]). Turning to `OC[C@@H]1[C@@H](O)[C@H](O)C[Se@+]1C[C@@H](O)[C@H]1OC(c2cc(F)ccc2Cl)OC[C@H]1O` (stereo partly drawn) [20e, (1S,2R,3S,4S)-1-((2S)-2-((4S,5R)-2-(2-Chloro-5-fluorophenyl)-5-hydroxy-1,3-dioxan-4-yl)-2-hydroxyethyl)-3,4-dihydroxy-2-(hydroxymethyl)tetrahydro-1H-selenophen-1-ium chloride], the half-inhibitory concentration (IC50) was 450 ± 80 nM at rat intestinal maltase and 410 ± 110 nM at rat intestinal sucrase.

For the compound `OC[C@@H]1[C@@H](O)[C@H](O)C[Se@+]1C[C@@H](O)[C@H]1OC(c2cc(C(F)(F)F)cc(C(F)(F)F)c2)OC[C@H]1O` (stereo partly drawn) [20i, (1S,2R,3S,4S)-1-((2S)-2-((4S,5R)-2-(3,5-Bis(trifluoromethyl)phenyl)-5-hydroxy-1,3-dioxan-4-yl)-2-hydroxyethyl)-3,4-dihydroxy-2-(hydroxymethyl)tetrahydro-1H-selenophen-1-ium chloride], the IC50 at rat intestinal maltase was found to be 1010 ± 320 nM; on rat intestinal sucrase, 410 ± 110 nM.

With `O=[N+]([O-])c1ccc(F)cc1C1OC[C@@H](O)[C@@H]([C@H](O)C[Se@@+]2C[C@@H](O)[C@H](O)[C@H]2CO)O1` (stereo partly drawn) [20j, (1S,2R,3S,4S)-1-((2S)-2-((4S,5R)-2-(5-Fluoro-2-nitrophenyl)-5-hydroxy-1,3-dioxan-4-yl)-2-hydroxyethyl)-3,4-dihydroxy-2-(hydroxymethyl)tetrahydro-1H-selenophen-1-ium chloride], the 50% inhibitory concentration (IC50) at rat intestinal maltase amounted to 330 ± 80 nM; against rat intestinal sucrase it was 90 ± 30 nM. The corresponding values for `N#Cc1ccccc1C1OC[C@@H](O)[C@@H]([C@H](O)C[Se@@+]2C[C@@H](O)[C@H](O)[C@H]2CO)O1` (stereo partly drawn) [20p, (1S,2R,3S,4S)-1-((2S)-2-((4S,5R)-2-(2-Cyanophenyl)-5-hydroxy-1,3-dioxan-4-yl)-2-hydroxyethyl)-3,4-dihydroxy-2-(hydroxymethyl)tetrahydro-1H-selenophen-1-ium chloride] are 820 ± 210 nM and 370 ± 50 nM. Consider `OCC1C(O)C(O)C[S+]1CC(O)C1OC(c2cc(F)ccc2Cl)OCC1O` [19e, 1,4-Dideoxy-1,4-[(R)-(5-deoxy-1,3-O-(2-chloro-5-fluorobenzylidene)-D-arabinitol-5-yl)episulfoniumylidene]-D-arabinitol chloride], for which, at rat intestinal sucrase (setting [1]), the IC50 was found to be 6600 ± 450 nM.
